Source: patent US20250129102A1, “CRYSTAL FORM OF PYRIMIDINE HETEROCYCLIC COMPOUND AND PREPARATION METHOD THEREFOR” (D3 Bio (Wuxi) Co., Ltd., priority 2021, published 2025)

Assays:
[1] = Stability in whole blood, beagle dogs; format: in vitro ADME; settings: 5 μM, 37° C.
Description: Stabilities of the assay compound in whole blood of CD-1 mice, SD rats, beagle dogs and cynomolgus monkeys were assayed, respectively. On the day of the assay or the day before the assay, fresh whole blood from CD-1 mice, SD rats, beagle dogs, and cynomolgus monkeys was collected using anticoagulant EDTA-K2. Prior to the start of the assay, the whole blood was mixed with PBS in 1:1 (v: v) and the mixture was preheated in a 37° C. water bath for 10 to 20 minutes. 96-well incubation plates were prepared and named T0, T30, T60, […], respectively. In the corresponding incubation plates, including T0, T30, T60 and […] incubation plates, 2 μL of working solutions of the compound or the control compound were mixed with 98 μL of blank whole blood of mice, rats, canines, monkeys and human in duplicate. All samples were incubated in a 37° C. water bath. The final incubation concentration of the compound was 5 μM and the final incubation concentration of the control compound was 2 μM. At the end of incubation for each time point, the corresponding incubation plate was removed and 100 μL of ultrapure water was immediately added to the corresponding sample wells, and mixed well. 800 μL of a solution of 200 ng/mL tolbutamide and labetalol in acetonitrile was added to precipitate the protein. […] 150 μL of supernatant was taken out and analyzed by LC/MS/MS.

[2] = In vitro stability in liver microsomes, SD rats; format: in vitro ADME; settings: rat, 0.5 mg/mL
Description: (§1) Metabolic stabilities of the assay compound in liver microsomes of CD-1 mice, SD rats, beagle dogs, cynomolgus monkeys, and human were assayed, respectively.
(§2) Two 96-well incubation plates were prepared and named T60 incubation plate and NCF60 incubation plate, respectively. 445 μL of microsomal working solutions (liver microsomal protein concentration of 0.56 mg/mL) were added to the T60 incubation plate and the NCF60 incubation plate, respectively, and then the above incubation plates were pre-incubated in a 37° C. water bath for about 10 minutes.
(§3) After the pre-incubation, 5 μL of working solutions of the assay sample or the control compound were added to the T60 incubation plate and the NCF60 incubation plate, respectively, and the mixture was mixed well. 50 μL of potassium phosphate buffer was added to each well of the NCF60 incubation plate to initiate the reaction. 180 μL of stop solution (200 ng/mL tolbutamide and 200 ng/mL labetalol in acetonitrile) and 6 uL of NADPH regeneration system working solution were added to the T0 stop plate, and 54 μL of sample was transferred from T60 incubation plate to T0 stop plate (generation of T0 sample). The reaction was initiated by adding 44 μL of NADPH regeneration system working solution to each well of the T60 incubation plate. Only 54 μL of microsome working solution, 6 uL of NADPH regeneration system working solution and 180 μL of stop solution were added to the Blank plate. Therefore, in samples of the assay compound or the control compound, the final reaction concentration of compound, testosterone, diclofenac and propafenone was 1 μM, the concentration of liver microsomes was 0.5 mg/mL, and the final reaction concentrations of DMSO and acetonitrile in the reaction system were 0.01% (v/v) and 0.99% (v/v), respectively. […] All samples were injected and analyzed by liquid chromatography-tandem mass spectrometry.

[3] = In vitro stability in liver microsomes, CD-1 mice; format: in vitro ADME; settings: mouse, CD-1 mice liver microsomes, 0.5 mg/mL
Description: as §1, §2, §3

[4] = Metabolic stability in hepatocytes, beagle dogs; format: in vitro ADME; settings: dog, cryopreserved hepatocytes
Description: Metabolic stabilities of assay compound in hepatocytes of CD-1 mice, SD rats, beagle dogs, cynomolgus monkeys, and human were assayed, respectively.
Several 96-well sample precipitation plates were prepared and named T0, T15, T30, T60, T90, T120, T0-MC, T120-MC and blank substrates, respectively. The recovery medium and incubation medium were taken out in advance and placed in a 37° C. water bath for pre-heating. Cryopreserved hepatocytes were removed from the liquid nitrogen tank and immediately immersed in a 37° C. water bath (approximately 90 seconds). After the cryopreserved hepatocytes had thawed and loosened, they were poured into a centrifuge tube containing 40 mL of recovery medium, and the tube was gently inverted to allow the cells to be resuspended in the recovery medium. The cells were centrifuged at 100×g at room temperature for 5 min, and the supernatant was removed. The hepatocytes were resuspended in an appropriate volume of incubation medium, and the cell viability was calculated by Trypan Blue staining method. 198 μL of hepatocyte suspension (0.51×10^6 cells/mL) was added to the preheated incubation plate. For the culture medium control group, 198 μL of hepatocyte-free incubation medium was added to T0-MC and T120-MC incubation plate. All incubation plates were pre-incubated in a 37° C. incubator for 10 minutes. Then 2 μL of working solutions of the assay sample and the control compound were added, respectively, and the mixture was mixed well. The incubation plate was immediately put into the shaker in the incubator, and the reaction was initiated while starting the timer. For each time point of each compound, 2 duplicate samples were prepared. The incubation conditions were 37° C., saturated humidity, and 5% CO2. […] All samples were mixed well and analyzed by LC/MS/MS.

[5] = tested on: KRAS^G12C-mutated MIA-PA-CA-2 cells; test: cells; settings: Homo sapiens, MIA PaCa-2, 72 h
Description: The main reagent used in this assay included CellTiter-Glo (Promega, Cat. No. G7573).
The main instrument used in this assay was PerkinElmer EnVision multi-function microplate reader.
The fluorescence value was read by EnVision. • 6) Data analysis: The inhibition rate of cells in each well was calculated according to the following equation:
Y=Bottom+(Top−Bottom)/(1+10^((Log IC50−X)*HillSlope))

C=C(F)C(=O)N1CCN(c2nc(OC[C@@]34CCCN3C[C@H](F)C4)nc3c2CO[C@H](c2c(F)c(N)cc(C)c2C(F)(F)F)C3)C[C@@H]1CC#N [Compound of formula (I)]
Detection of assay compound content within 240 min [1]: 102%
CLint scaled at 1 μM [2]: 108 mL/min/kg
half-life at 1 μM [2]: 23 min
microsomal CLint at 1 μM ([2]; read-out: CLint(hep)): 60.2 µL/min/mg
CLint scaled at 1 μM [3]: 1130 mL/min/kg
half-life at 1 μM [3]: 4.9 min
microsomal CLint at 1 μM ([3]; read-out: CLint(hep)): 285 µL/min/mg
half-life at 1 μM [4]: 182 min
hepatocyte CLint at 1 μM ([4]; read-out: CLint(hep)): 7.6 µL/min/1e6 cells
CLint scaled at 1 μM ([4]; read-out: CLint(liver)): 52.3 mL/min/kg
IC50 [5]: 440 pM
